Reference: ChEMBL document CHEMBL5625173, “Antimycobacterial pyridine carboxamides: From design to in vivo activity” (Eur J Med Chem, 2023)
Converted amounts (≈) assume the structure as drawn.

How the values were obtained:
Assay type in all cases: functional
[1] = test system: Mycobacterium tuberculosis; experiment: Antimycobacterial activity against Mycobacterium tuberculosis H37Rv overexpressing dfrA by alamar blue staining based microplate analysis
[2] = test system: Mycobacterium tuberculosis; experiment: Antimycobacterial activity against Mycobacterium tuberculosis H37Rv overexpressing folP1 by alamar blue staining based microplate analysis
[3] = test system: Mycobacterium tuberculosis; experiment: Antimycobacterial activity against Mycobacterium tuberculosis H37Rv overexpressing ribD by alamar blue staining based microplate analysis
[4] = test system: Mycobacterium tuberculosis; experiment: Antimycobacterial activity against Mycobacterium tuberculosis H37Rv overexpressing folC by alamar blue staining based microplate analysis

`O=C(Nc1ccc(C(=O)[O-])c(O)c1)c1ccc2ccccc2n1.[Na+]` showed an MIC [1] of 8 µg/mL, an MIC [2] of 8 µg/mL and an MIC [3] of 8 µg/mL. The MIC [4] was 8 µg/mL.
`O=C(Nc1ccc(C(=O)O)c(O)c1)c1ccc2ccccc2n1` was tested, and the MIC [1] was 8 µg/mL (≈ 25.9 µM), the MIC [2] was 8 µg/mL (≈ 25.9 µM) and the MIC [3] was 8 µg/mL (≈ 25.9 µM). For the same molecule, the MIC [4] was 8 µg/mL (≈ 25.9 µM).
In the case of `Nc1ccc(C(=O)O)c(O)c1` [AMINOSALICYLIC ACID], the MIC [1] is reported as greater than 5 µg/mL, the MIC [2] is reported as 0.02 µg/mL (≈ 0.131 µM) and the MIC [3] is reported as 2.5 µg/mL (≈ 16.3 µM). It also gave an MIC [4] of 0.02 µg/mL (≈ 0.131 µM).
